# Read-outs that look alike come from different tables or passages of the source.
# Experiments:
# SARS-CoV-2 [1] = conditions: read-out: antiviral EC50, primary CPE assay, cited from earlier work
# SARS-CoV-2 [2] = conditions: read-out: antiviral EC50; cited from earlier work
# SARS-CoV-2 [3] = conditions: read-out: antiviral EC50; genomic RNA quantification; cited from earlier work
# SARS-CoV-2 M^Pro = SARS-CoV-2 M^Pro (Severe acute respiratory syndrome coronavirus 2, UniProt P0DTD1); format: biochemical; conditions: at 16 μM inhibitor
compound,measurement,setting,value
CC(C)COCC(CN(Cc1ccccc1)c1ccccc1)N1CCCC1 (centres unmarked) [bepridil],EC50,SARS-CoV-2 [1]; ACE2+ A549 cells,460 nM
CC(C)(C)NC(=O)N[C@H](C(=O)N1C[C@H]2[C@@H]([C@H]1C(=O)NC(CC1CCC1)C(=O)C(N)=O)C2(C)C)C(C)(C)C (some centres unmarked) [boceprevir],EC50,SARS-CoV-2 [1],1310 ± 580 nM
same,EC50,SARS-CoV-2 [2],15600 nM
CCCCCCNC(=O)n1cc(F)c(=O)[nH]c1=O [carmofur],EC50,SARS-CoV-2 [3],> 100000 nM
CCN(CC)CCCC(C)Nc1ccnc2cc(Cl)ccc12 (centres unmarked) [chloroquine],M^Pro retained activity,SARS-CoV-2 M^Pro,84%
